Values quoted from earlier work as cited in US10296863B2, “Wireless sensor devices for post-harvest crop quality and pest management” (priority 2017, dated 2019).
Read-outs that look alike come from different tables or passages of the source.

Tests used:
[1] = tested on: resistant cigarette beetle
[2] = tested on: tobacco moth and susceptible cigarette beetle
[3] = tobacco temperature 16-20 °C (61-68 °F), 300 ppm phosphine at the bale/case centre

## P [phosphine]
[1]; [3]
  Minimum Exposure Time to achieve 100% control: 12 days
[1]; tobacco temperature 20-25 °C (68-77 °F), 300 ppm phosphine at the bale/case centre
  Minimum Exposure Time to achieve 100% control: 12 days
[1]; tobacco temperature 20-25 °C (68-77 °F), 700 ppm phosphine at the bale/case centre
  Minimum Exposure Time to achieve 100% control: 10 days
[1]; tobacco temperature >25 °C (>77 °F), 300 ppm phosphine at the bale/case centre
  Minimum Exposure Time to achieve 100% control: 12 days
[1]; tobacco temperature >25 °C (>77 °F), 600 ppm phosphine at the bale/case centre
  Minimum Exposure Time to achieve 100% control: 6 days
[2]; [3]
  Minimum Exposure Time to achieve 100% control: 6 days
[2]; tobacco temperature >20 °C (>68 °F), 200 ppm phosphine at the bale/case centre
  Minimum Exposure Time to achieve 100% control: 4 days
